Assay results published in publication PMC9781827, “Isolation and Identification of Anti-Inflammatory Peptide from Goose Blood Hydrolysate to Ameliorate LPS-Mediated Inflammation and Oxidative Stress in RAW264.7 Macrophages” (Molecules, 2022).

Tests used:
Type in all cases: cell-based
[1] = test system: TLR4, CD14, MD-2, MyD88, p-NF-kB/NF-kB, IKKβ; assay: Western blot of TLR4, CD14, MD-2, MyD88, p-NF-kB/NF-kB, IKKβ in RAW264.7 macrophages; conditions: LPS group vs CTRL group, p < 0.05
Experimental: (§1) RAW264.7 macrophages were washed with cold PBS and homogenized with two small magnetic beads (2 mm) and 10× volume of RIPA buffer containing 1% protease inhibitors for 60 s. Then the supernatant was collected after centrifuging at 12,000× g for 10 min at 4 °C, which was the total protein solution. The concentration of protein in the total protein solution was measured by BCA kits. The protein concentration of the supernatant was diluted to 2.0 mg/mL and mixed with an equal volume of buffer (0.25 mol/L Tris-HCl buffer, pH 6.8, containing 4% SDS and 20% glycerol with 20 mmol/L 2-mercaptoethanol). The stacking gel and separating gel were made of 5% (w/v) and 10% (w/v) polyacrylamide, respectively. Electrophoresis was carried out at 80 V until the dye front reached the bottom of the stacking gel, and the gel was run at 120 V until the dye front reached the bottom of the separating gel (165-8001, Bio-Rad Mini-PROTEAN Tetra Electrophoresis System). The PVDF membrane was covered on the gel and transferred membrane at 300 mA for 30 min. The membrane was moved into a decolorization shaker with 5% skim milk (0.5% TBST) and blocked for 1 h at room temperature. […] The film was scanned and archived, processed and decolorized by Photoshop, and the optical density value of the target band was analysed by ImageJ software processing system.

[2] = test system: iNOS; assay: Western blot of iNOS in RAW264.7 macrophages; conditions: LPS group vs CTRL group, p < 0.05
Experimental: as §1

[3] = test system: ROS; assay: ROS level in LPS-mediated RAW264.7 macrophages (DCFH-DA probe); conditions: stimulation with LPS alone; mean ± S.D., n = 3
Experimental: (§2) The culture medium was collected and centrifuged at 3000× g for 10 min. Then, the inflammatory cytokines levels of TNF-α (MB-50051A), IL-1β (MB-50064B) and IL-6 (MB-50054A) in the culture medium were determined with ELISA kits (Jiangsu Enzyme marker Biotechnology Co., Ltd., Yancheng, China). […] (7) Add 50 μL of stop solution to each well, and measure its absorbance value at 450 nm wavelength. The activities of SOD, GSH-Px and the levels of ROS and Nitric oxide (NO) in macrophages were determined with spectrophotometric kits. […] The absorbance value of miscible liquid was measured at 450 nm wavelength by a multifunctional microplate reader; GSH-Px: 0.2 mL of sample was mixed with 0.2 mL GSH-Px (1 mmol/L) and performed at 37 °C for 5 min. […] The absorbance value was measured at 412 nm wavelength by a multifunctional microplate reader; ROS: DCFH-DA probe was added directly to serum-free medium: DCFH-DA was generally diluted with serum-free medium at a final concentration of 10 µM at 1:1000. […] In general, obvious green fluorescence can be observed in positive control cells after 20 min of stimulation. […] It can also be detected according to FITC fluorescence detection conditions. The results were expressed as fluorescence values.

[4] = test system: GSH-Px; assay: GSH-Px activity in LPS-mediated RAW264.7 macrophages; conditions: LPS alone; mean ± S.D., n = 3
Experimental: as §2

lipopolysaccharide [LPS]
protein expression levels of TLR4, CD14, MD2, MyD88, p-NF-kB, NF-kB and IKKβ [1]: elevated | protein expression level of iNOS [2]: higher | levels of ROS [3]: 61.96 ± 2.27 U/mg prot | level of GSH-Px [4]: 44.63 ± 2.72 U/mg prot
